According to the supplement of paper PMC10307832:

Experiments:
Assay in all cases: relative viability (nuclei count vs DMSO), 5 days (fraction); higher = more cells survive
[1] = compound: COc1cc2nc(N3CCCN(C)CC3)nc(NC3CCN(Cc4ccccc4)CC3)c2cc1OC + COc1cccc2cc(-c3nc([C@H]4CC[C@H](C(=O)O)CC4)n4ncnc(N)c34)[nH]c12 [OSI-027] (partner 0.5 µM)
Summary of the method: (§1)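 Values are medians from duplicate plates. Each reflects relative viability, defined as the nuclei count of treated wells over that of vehicle wells. Lung cancer cell lines in 1536-well plates were pin-tool dosed one day after seeding with one drug alone or with a fixed anchor-drug dose plus five library-drug doses (not always all listed) in √10 steps, then fixed, stained and imaged at 4× after 5 days.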

[2] = compound: COc1cc2nc(N3CCCN(C)CC3)nc(NC3CCN(Cc4ccccc4)CC3)c2cc1OC + C[C@]1(O)C[C@@H](c2nc(-c3ccc4ccc(-c5ccccc5)nc4c3)c3c(N)nccn32)C1 [Linsitinib] (partner 1 µM)
Summary of the method: as §1

[3] = compound: COc1cc2nc(N3CCCN(C)CC3)nc(NC3CCN(Cc4ccccc4)CC3)c2cc1OC + N=C(N)NC(=N)NCCc1ccccc1 [Phenformin] (partner 250 µM)
Summary of the method: as §1

AZD6482 + Luminespib = compound: Cc1cc([C@@H](C)Nc2ccccc2C(=O)O)c2nc(N3CCOCC3)cc(=O)n2c1 [AZD6482] + CCNC(=O)c1noc(-c2cc(C(C)C)c(O)cc2O)c1-c1ccc(CN2CCOCC2)cc1 [Luminespib] (partner 0.01 µM)
Summary of the method: as §1

Cell Line | relative viability ([1]; first compound 0.2 µM) | relative viability ([1]; first compound 0.6325 µM) | relative viability ([1]; first compound 2 µM) | relative viability ([1]; first compound 6.325 µM) | relative viability ([2]; first compound 0.2 µM) | relative viability ([2]; first compound 0.6325 µM) | relative viability ([2]; first compound 2 µM) | relative viability ([2]; first compound 6.325 µM) | relative viability ([3]; first compound 0.2 µM) | relative viability ([3]; first compound 0.6325 µM) | relative viability ([3]; first compound 2 µM) | relative viability ([3]; first compound 6.325 µM) | relative viability (AZD6482 + Luminespib; first compound 0.08 µM) | relative viability (AZD6482 + Luminespib; first compound 0.253 µM) | relative viability (AZD6482 + Luminespib; first compound 0.8 µM) | relative viability (AZD6482 + Luminespib; first compound 2.53 µM) | relative viability (AZD6482 + Luminespib; first compound 8 µM)
NCI-H1993 | 0.534 | 0.57 | 0.529 | 0.553 | 0.728 | 0.723 | 0.676 | 0.765 | 0.528 | 0.442 | 0.528 | 0.501 | 0.509 | 0.711 | 0.737 | 0.571 | 0.616
RERF-LC-KJ | 0.527 | 0.586 | 0.573 | 0.383 | 0.883 | 0.856 | 0.894 | 0.886 | 0.442 | 0.433 | 0.397 | 0.418 | 1.16 | 1.29 | 1.27 | 0.978 | 0.987
NCI-H23 | 0.637 | 0.578 | 0.707 | 0.503 | 0.562 | 0.733 | 0.833 | 0.53 | 0.743 | 0.717 | 0.936 | 0.794 | 0.235 | – | 0.249 | 0.207 | 0.201
EMC-BAC-2 | 0.361 | 0.353 | 0.39 | 0.397 | 0.799 | 0.815 | 0.903 | 0.787 | 0.531 | 0.477 | 0.496 | 0.523 | 1.01 | 1.05 | 1.18 | 0.805 | 0.787
NCI-H2405 | 0.717 | 0.677 | 0.671 | 0.66 | 0.934 | 0.975 | 0.979 | 0.809 | 0.425 | 0.444 | 0.421 | 0.371 | 0.367 | – | 0.612 | 0.261 | 0.385
NCI-H358 | 0.734 | 0.831 | 0.845 | 0.626 | 0.837 | 0.66 | 0.741 | 0.52 | 0.318 | 0.522 | 0.296 | 0.305 | 0.422 | 0.485 | 0.338 | 0.173 | 0.199
NCI-H1944 | 0.428 | 0.465 | 0.307 | 0.398 | 1.11 | 1.23 | – | 1.13 | 0.21 | 0.221 | 0.201 | 0.203 | 0.775 | 0.621 | 0.858 | 0.546 | 0.589
EPLC-272H | 0.358 | 0.32 | 0.316 | 0.205 | 1.25 | 1.22 | 1.02 | 1.1 | 0.353 | 0.335 | 0.318 | 0.348 | 0.347 | 0.164 | 0.21 | 0.179 | 0.256
NCI-H1915 | 0.584 | 0.619 | 0.684 | 0.637 | 1.05 | 1.08 | 1.12 | 1.08 | 0.371 | 0.351 | 0.374 | 0.364 | 0.697 | 0.698 | 0.824 | 0.696 | 0.778
NCI-H596 | 0.771 | 0.786 | 0.866 | 0.667 | 1.12 | 1.02 | 1.17 | 0.992 | 0.724 | 0.756 | 0.696 | 0.798 | 0.92 | 0.815 | 0.848 | 0.812 | 0.801
NCI-H322M | 0.546 | 0.504 | 0.595 | 0.423 | 0.826 | 0.887 | 0.939 | 0.901 | 0.669 | 0.743 | 0.748 | 0.762 | 0.776 | 0.472 | 0.783 | 0.465 | 0.496
NCI-H2228 | 0.539 | 0.451 | 0.499 | 0.256 | 0.59 | 0.587 | 0.83 | 0.476 | 0.271 | 0.298 | 0.224 | 0.141 | – | 0.119 | 0.118 | 0.115 | 0.169
NCI-H647 | 0.597 | 0.664 | 0.62 | 0.272 | 1.17 | 1.03 | 1.14 | 0.599 | 0.586 | 0.727 | 0.673 | 0.366 | 0.167 | 0.121 | 0.147 | 0.193 | 0.146
SK-MES-1 | 0.61 | 0.56 | 0.536 | 0.218 | 1 | 1 | 1.08 | 1.01 | 0.656 | 0.626 | 0.696 | 0.541 | 0.416 | 0.556 | 0.313 | 0.269 | 0.304
NCI-H2085 | 0.742 | 0.788 | 0.72 | 0.584 | 0.9 | 0.917 | 0.956 | 0.84 | 0.776 | 0.743 | 0.786 | 0.641 | 0.36 | 0.194 | 0.22 | 0.22 | 0.346
SW 1573 | 0.564 | 0.787 | 0.551 | 0.254 | 0.74 | 0.806 | 0.768 | 0.758 | 0.373 | 0.424 | 0.369 | 0.163 | 0.218 | 0.219 | 0.246 | 0.194 | 0.206
NCI-H727 | 0.511 | 0.68 | 0.535 | 0.565 | 0.316 | 0.277 | 0.369 | 0.221 | 0.478 | 0.415 | 0.447 | 0.348 | 0.245 | 0.348 | 0.786 | 0.292 | 0.345
NCI-H441 | 0.576 | 0.521 | 0.573 | 0.591 | 0.527 | – | 0.515 | 0.553 | 0.821 | 0.859 | 1.03 | 0.85 | 0.389 | 0.375 | 0.3 | – | 0.262
